pIC50: −log10 of the molar value. Several values for one entry are separate records, joined by “and”; a condition that tells them apart may be missing. Equal entries are not always repeated.
Target: wild-type Epidermal Growth Factor Receptor (EGFR) (Homo sapiens (Human), UniProt P00533)
Test: WT-EGFR Kinase Assay (TR-FRET, 2 mM ATP)
Type: biochemical
Conditions: EGFR Wildtyp 2 mM ATP IC50 [mol/l] (median), median or individual measurements
Excerpt: Inhibitory activity of compounds of the present invention against wild-type Epidermal Growth Factor Receptor (EGFR) was quantified employing the TR-FRET based EGFR assay as described in the following paragraphs.
Recombinant fusion protein of N-terminal Glutathion-S-Transferase (GST) and a fragment of human EGFR (amino acids R669 to A1210), expressed in Sf9 insect cells and purified via affinity chromatography using Glutathion Sepharose as described above, was used as kinase. As substrate for the kinase reaction the biotinylated peptide biotin-Ahx-[…] (C-terminus in amide form) was used which can be purchased e.g. form the company Biosynthan GmbH (Berlin-Buch, Germany).
For the assay 50 nl of a 100 fold concentrated solution of the test compound in DMSO was pipetted into either a black low volume 384 well microtiter plate or a black 1536 well microtiter plate (both Greiner Bio-One, Frickenhausen, Germany), 2 μL of a solution of EGFR in aqueous assay buffer [50 mM Hepes pH 7.0, 10 mM MgCl2, 1 mM dithiothreitol, 0.5 mM EGTA, 0.3 mM activated sodium ortho-vanadate, 0.005% (w/v) bovine serum albumin, 0.005% (v/v) Tween-20] were added and the mixture was incubated for 15 min at 22° C. to allow pre-binding of the test compounds to the enzyme before the start of the kinase reaction. […] The concentration of EGFR was adjusted depending of the activity of the enzyme lot and was chosen appropriate to have the assay in the linear range, typical concentration was […]. The reaction was stopped by the addition of 3 μL of a solution of HTRF detection reagents (83.3 nM streptavidine-XL665 [Cisbio Bioassays, Codolet, France] and 1.67 nM PT66-Tb-Cryptate, a terbium-cryptate labelled anti-phospho-tyrosine antibody from Cisbio Bioassays [instead of the PT66-Tb-cryptate PT66-Eu-Chelate from Perkin Elmer can also be used]) in an aqueous EDTA-solution (133.3 mM EDTA, 0.2% (w/v) bovine serum albumin in 50 mM HEPES pH 7.5).
The resulting mixture was incubated 1 h at 22° C. to allow the binding of the biotinylated phosphorylated peptide to the streptavidine-XL665 and the PT66-Tb-Cryptate. Subsequently the amount of phosphorylated substrate was evaluated by measurement of the resonance energy transfer from the PT66-Tb-Cryptate to the streptavidine-XL665. Therefore, the fluorescence emissions at 620 nm and 665 nm after excitation at 337 nm were measured in a HTRF reader, e.g. a Pherastar (BMG Labtechnologies, Offenburg, Germany) or a Viewlux (Perkin-Elmer). The ratio of the emissions at 665 nm and at 622 nm was taken as the measure for the amount of phosphorylated substrate.

wild-type Epidermal Growth Factor Receptor (EGFR), sequence (P00533 669-1210): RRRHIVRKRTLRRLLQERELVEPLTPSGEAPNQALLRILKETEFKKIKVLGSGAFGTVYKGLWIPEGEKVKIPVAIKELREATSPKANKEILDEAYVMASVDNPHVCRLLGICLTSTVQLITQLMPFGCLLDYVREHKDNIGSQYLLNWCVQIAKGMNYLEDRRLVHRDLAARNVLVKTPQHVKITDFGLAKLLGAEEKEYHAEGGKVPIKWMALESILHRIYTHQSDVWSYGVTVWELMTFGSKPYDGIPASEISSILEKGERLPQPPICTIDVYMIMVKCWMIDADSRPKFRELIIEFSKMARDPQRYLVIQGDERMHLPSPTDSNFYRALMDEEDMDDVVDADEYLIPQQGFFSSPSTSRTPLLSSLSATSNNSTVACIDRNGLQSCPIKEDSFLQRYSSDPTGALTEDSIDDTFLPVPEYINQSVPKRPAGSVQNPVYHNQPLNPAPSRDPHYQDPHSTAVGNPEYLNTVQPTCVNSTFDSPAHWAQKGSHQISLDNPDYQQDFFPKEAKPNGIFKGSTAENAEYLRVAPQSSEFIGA

Structure (SMILES)	pIC50
CN1CCc2[nH]c(-c3ccnc(NC(=O)C(CC(F)F)c4ccc(F)cc4)c3)c(-c3ccccc3)c2C1=O (racemic) [Example 002, 4,4-difluoro-2-(4-fluorophenyl)-N-[4-(5-methyl-4-oxo-3-phenyl-4,5,6,7-tetrahydro-1H-pyrrolo[3,2-c]pyridin-2-yl)pyridin-2-yl]butanamide]	< 4.70
Cn1ccc2[nH]c(-c3ccnc(NC(=O)C(CC(F)F)c4ccc(F)cc4)c3)c(-c3ccccc3)c2c1=O (racemic) [Example 006, 4,4-difluoro-2-(4-fluorophenyl)-N-[4-(5-methyl-4-oxo-3-phenyl-4,5-dihydro-1H-pyrrolo[3,2-c]pyridin-2-yl)pyridin-2-yl]butanamide]	< 4.70
CN1CCc2[nH]c(-c3ccnc(NC(=O)C(CC(F)F)c4ccc(F)cc4)c3)c(-c3cccnc3)c2C1=O (racemic) [Example 009, 4,4-difluoro-2-(4-fluorophenyl)-N-{4-[5-methyl-4-oxo-3-(pyridin-3-yl)-4,5,6,7-tetrahydro-1H-pyrrolo[3,2-c]pyridin-2-yl]pyridin-2-yl}butanamide]	< 4.70
CC(C(=O)Nc1cc(-c2[nH]c3c(CC(F)(F)F)cn(C)c(=O)c3c2-c2ccccc2)ccn1)c1ccc(F)cc1 (racemic) [Example 014, 2-(4-fluorophenyl)-N-{4-[5-methyl-4-oxo-3-phenyl-7-(2,2,2-trifluoroethyl)-4,5-dihydro-1H-pyrrolo[3,2-c]pyridin-2-yl]pyridin-2-yl}propanamide]	< 4.70
Cn1cc(CC(F)(F)F)c2[nH]c(-c3ccnc(NC(=O)C(CC(F)F)c4ccc(F)cc4)c3)c(-c3ccccc3)c2c1=O (racemic) [Example 018, 4,4-difluoro-2-(4-fluorophenyl)-N-{4-[5-methyl-4-oxo-3-phenyl-7-(2,2,2-trifluoroethyl)-4,5-dihydro-1H-pyrrolo[3,2-c]pyridin-2-yl]pyridin-2-yl}butanamide]	< 4.70
CC(C(=O)Nc1cc(-c2[nH]c3c(CC(F)(F)F)cn(C)c(=O)c3c2-c2ccc(F)cc2)ccn1)c1ccc(F)cc1 (racemic) [Example 022, 2-(4-fluorophenyl)-N-{4-[3-(4-fluorophenyl)-5-methyl-4-oxo-7-(2,2,2-trifluoroethyl)-4,5-dihydro-1H-pyrrolo[3,2-c]pyridin-2-yl]pyridin-2-yl}propanamide]	< 4.70
Cn1cc(CC(F)(F)F)c2[nH]c(-c3ccnc(NC(=O)C(CC(F)F)c4ccc(F)cc4)c3)c(-c3ccc(F)cc3)c2c1=O (racemic) [Example 026, 4,4-difluoro-2-(4-fluorophenyl)-N-{4-[3-(4-fluorophenyl)-5-methyl-4-oxo-7-(2,2,2-trifluoroethyl)-4,5-dihydro-1H-pyrrolo[3,2-c]pyridin-2-yl]pyridin-2-yl}butanamide]	< 4.70
Cc1cn(C)c(=O)c2c(-c3ccc(F)cc3)c(-c3ccnc(NC(=O)C(C)c4ccc(F)cc4)c3)[nH]c12 (racemic) [Example 030, 2-(4-fluorophenyl)-N-{4-[3-(4-fluorophenyl)-5,7-dimethyl-4-oxo-4,5-dihydro-1H-pyrrolo[3,2-c]pyridin-2-yl]pyridin-2-yl}propanamide]	< 4.70
Cc1cn(C)c(=O)c2c(-c3ccc(F)cc3)c(-c3ccnc(NC(=O)C(CC(F)F)c4ccc(F)cc4)c3)[nH]c12 (racemic) [Example 034, 4,4-difluoro-2-(4-fluorophenyl)-N-{4-[3-(4-fluorophenyl)-5,7-dimethyl-4-oxo-4,5-dihydro-1H-pyrrolo[3,2-c]pyridin-2-yl]pyridin-2-yl}butanamide]	< 4.70
Cc1cn(C)c(=O)c2c(-c3ccccc3)c(-c3ccnc(NC(=O)C(C)c4ccc(F)cc4)c3)[nH]c12 (racemic) [Example 038, N-[4-(5,7-dimethyl-4-oxo-3-phenyl-4,5-dihydro-1H-pyrrolo[3,2-c]pyridin-2-yl)pyridin-2-yl]-2-(4-fluorophenyl)propanamide]	< 4.70
Cc1cn(C)c(=O)c2c(-c3ccccc3)c(-c3ccnc(NC(=O)C(CC(F)F)c4ccc(F)cc4)c3)[nH]c12 (racemic) [Example 040, N-[4-(5,7-dimethyl-4-oxo-3-phenyl-4,5-dihydro-1H-pyrrolo[3,2-c]pyridin-2-yl)pyridin-2-yl]-4,4-difluoro-2-(4-fluorophenyl)butanamide]	< 4.70
CC1(C)CNC(=O)c2c1[nH]c(-c1ccnc(NC(=O)C(CC(F)F)c3ccc(F)cc3)c1)c2-c1ccccc1 (racemic) [Example 043, N-[4-(7,7-dimethyl-4-oxo-3-phenyl-4,5,6,7-tetrahydro-1H-pyrrolo[3,2-c]pyridin-2-yl)pyridin-2-yl]-4,4-difluoro-2-(4-fluorophenyl)butanamide]	< 4.70
CC(C(=O)Nc1cc(-c2[nH]c3c(c2-c2ccccc2)C(=O)NCC3(C)C)ccn1)c1ccc(F)cc1 (racemic) [Example 046, N-[4-(7,7-dimethyl-4-oxo-3-phenyl-4,5,6,7-tetrahydro-1H-pyrrolo[3,2-c]pyridin-2-yl)pyridin-2-yl]-2-(4-fluorophenyl)propanamide]	< 4.70
CN1C(=O)c2c([nH]c(-c3ccnc(NC(=O)C(CC(F)F)c4ccc(F)cc4)c3)c2-c2ccccc2)CC12CCC2 (racemic) [Example 049, 4,4-difluoro-2-(4-fluorophenyl)-N-[4-(5′-methyl-4′-oxo-3′-phenyl-1′,4′,5′,7′-tetrahydrospiro[cyclobutane-1,6′-pyrrolo[3,2-c]pyridin]-2′-yl)pyridin-2-yl]butanamide]	< 4.70
CC(C(=O)Nc1cc(-c2[nH]c3c(c2-c2ccccc2)C(=O)N(C)C2(CCC2)C3)ccn1)c1ccc(F)cc1 (racemic) [Example 052, 2-(4-fluorophenyl)-N-[4-(5′-methyl-4′-oxo-3′-phenyl-1′,4′,5′,7′-tetrahydrospiro[cyclobutane-1,6′-pyrrolo[3,2-c]pyridin]-2′-yl)pyridin-2-yl]propanamide]	< 4.70
CN1CC(CC2CC2)c2[nH]c(-c3ccnc(NC(=O)Cc4ccc(F)cc4)c3)c(-c3ccccc3)c2C1=O (racemic) [Example 055, N-{4-[7-(cyclopropylmethyl)-5-methyl-4-oxo-3-phenyl-4,5,6,7-tetrahydro-1H-pyrrolo[3,2-c]pyridin-2-yl]pyridin-2-yl}-2-(4-fluorophenyl)acetamide]	5.46
CC(C(=O)Nc1cc(-c2[nH]c3c(CC4CC4)cn(C)c(=O)c3c2-c2ccccc2)ccn1)c1ccc(F)cc1 (racemic) [Example 058, N-{4-[7-(cyclopropylmethyl)-5-methyl-4-oxo-3-phenyl-4,5-dihydro-1H-pyrrolo[3,2-c]pyridin-2-yl]pyridin-2-yl}-2-(4-fluorophenyl)propanamide]	< 4.70
Cn1cc(CC2CC2)c2[nH]c(-c3ccnc(NC(=O)C(CC(F)F)c4ccc(F)cc4)c3)c(-c3ccccc3)c2c1=O (racemic) [Example 060, N-{4-[7-(cyclopropylmethyl)-5-methyl-4-oxo-3-phenyl-4,5-dihydro-1H-pyrrolo[3,2-c]pyridin-2-yl]pyridin-2-yl}-4,4-difluoro-2-(4-fluorophenyl)butanamide]	< 4.70
CN1CC(CC2CC2)c2[nH]c(-c3ccnc(NC(=O)Cc4ccc(F)cc4)c3)c(-c3ccc(F)cc3)c2C1=O (racemic) [Example 061, N-{4-[7-(cyclopropylmethyl)-3-(4-fluorophenyl)-5-methyl-4-oxo-4,5,6,7-tetrahydro-1H-pyrrolo[3,2-c]pyridin-2-yl]pyridin-2-yl}-2-(4-fluorophenyl)acetamide]	6.09
CC(C(=O)Nc1cc(-c2[nH]c3c(CC4CC4)cn(C)c(=O)c3c2-c2ccc(F)cc2)ccn1)c1ccc(F)cc1 (racemic) [Example 063, N-{4-[7-(cyclopropylmethyl)-3-(4-fluorophenyl)-5-methyl-4-oxo-4,5-dihydro-1H-pyrrolo[3,2-c]pyridin-2-yl]pyridin-2-yl}-2-(4-fluorophenyl)propanamide]	< 4.70
Cn1ccc2[nH]c(-c3ccnc(NC(=O)C(CC(F)F)c4ccc(F)cc4)c3)c(-c3ccccc3)c2c1=O (single isomer, unassigned) [Example 007, 4,4-difluoro-2-(4-fluorophenyl)-N-[4-(5-methyl-4-oxo-3-phenyl-4,5-dihydro-1H-pyrrolo[3,2-c]pyridin-2-yl)pyridin-2-yl]butanamide]	4.93 and 4.87
